Experiments:
[1] = tested on: FAM86A (NM_201400.4); assay: shRNA mean knockdown level of FAM86A (Table 1); assay type: cell-based; conditions: Homo sapiens FAM86A, pLKO.1 vector
[2] = tested on: B16F10 cells; assay: Melanogenesis induced by α-MSH (melanin content assay); assay type: cell-based, mouse; conditions: α-MSH 100 nM, 48 hours
[3] = tested on: tyrosinase, TYRP-1, TYRP-2, MITF and FAM86A genes; assay: Real-time PCR of melanogenesis-associated genes and FAM86A after α-MSH treatment; assay type: cell-based, mouse; conditions: B16F10 cells, α-MSH 100 nM, 48 hours
Description: The B16F10 cells cultured in Example 1 were seeded in 6-well plates at a density of 5×10^4 cells per well, grown for 24 hours, and then treated with α-MSH at 100 nM. The cells were incubated in an incubator under conditions of 37° C. and 5% CO2 for 48 hours. After 48 hours of incubation, the medium was completely removed, the cells were decomposed with TRIzol and neutralized using BCP. The neutralized liquid was treated with isopropanol to precipitate mRNA. Subsequently, only the precipitated mRNA was collected using a centrifuge, and used for the experiment. Intracellular mRNA was synthesized into cDNA using a cDNA kit, and the expression levels of tyrosinase, TYRP-1, TYRP-2, MITF and FAM86A genes, which are important for melanogenesis, were determined by PCR.

[4] = tested on: protein FAM86A; assay: Western blotting of protein FAM86A after α-MSH treatment; assay type: cell-based, mouse; conditions: B16F10 cells, α-MSH 100 nM, 48 hours
Description: The B16F10 cells cultured in Example 1 were seeded in 6-well plates at a density of 5×10^4 cells per well, grown for 24 hours, and then treated with α-MSH at 100 nM. The cells were incubated in an incubator under conditions of 37° C. and 5% CO2 for 48 hours, and washed with PBS twice. Subsequently, PBS was completely removed, and then 200 μL of RIPA buffer, which is a tissue lysis and staining reagent, was added to each plate, followed by harvesting cells with a scraper. Afterward, a BCA assay was conducted to quantify proteins, and electrophoresis was performed using 10% SDS-PAGE. The protein in the resulting SDS-PAGE gel was transferred onto a PVDF membrane, and the resulting PVDF membrane onto which the protein transfer had been completed was blocked in TBS-T (in 100 mM NaCl, 10 mM Tris, 0.1% (v/v) Tween-20, pH 7.4 (PBST) containing 3% BSA) at room temperature. After washing three times with TBS-T for 10 minutes, a primary antibody in 3% BSA dissolved in TBS-T was treated for 1 hour, and then sufficiently washed with TBS-T. In addition, a secondary antibody for 1 hour, and washed three times with PBS-T for 10 minutes each. Subsequently, the amount and location of a specific protein were confirmed using an ECL detection system. […]

[5] = tested on: FAM86 (NM_027446.2); assay: shRNA mean knockdown level of FAM86 (Table 1); assay type: cell-based; conditions: Mus musculus FAM86, pLKO.1 vector

## SEQ ID NO: 15: FAM86A shRNA (Homo sapiens, NM_201400.4), pLKO.1 vector, target sequence SEQ ID NO: 25 (DNA CCGGGCAGACATCACTGCCAAGTTACTCGAGTAACTTGGCAGTGATGTCTGCTTTTTG)
[1]
  Mean Knock down level: 0.6

## SEQ ID NO: 13: FAM86A shRNA (Homo sapiens, NM_201400.4), pLKO.1 vector, target sequence SEQ ID NO: 23 (DNA CCGGGATGTTGTCATTGCAGCAGATCTCGAGATCTGCTGCAATGACAACATCTTTTTG)
[1]
  Mean Knock down level: 0.79

## SEQ ID NO: 12: FAM86A shRNA (Homo sapiens, NM_201400.4), pLKO.1 vector, target sequence SEQ ID NO: 22 (DNA CCGGCGAGGGAATGTCCTTCTCAATCTCGAGATTGAGAAGGACATTCCCTCGTTTTTG)
[1]
  Mean Knock down level: 0.84

## SEQ ID NO: 11: FAM86A shRNA (Homo sapiens, NM_201400.4), pLKO.1 vector, target sequence SEQ ID NO: 21 (DNA CCGGGCAGAAACTGTTTCCCTACGACTCGAGTCGTAGGGAAACAGTTTCTGCTTTTTG)
[1]
  Mean Knock down level: 0.93

## SEQ ID NO: 14: FAM86A shRNA (Homo sapiens, NM_201400.4), pLKO.1 vector, target sequence SEQ ID NO: 24 (DNA CCGGGCCAGCAGTTCTGGTTCTTAACTCGAGTTAAGAACCAGAACTGCTGGCTTTTTG)
[1]
  Mean Knock down level: 0.77

## Ac-Ser-Tyr-Ser-Met-Glu-His-Phe-Arg-Trp-Gly-Lys-Pro-Val-NH2 [α-MSH]
[2]
  melanogenesis: increased
[3]
  expression level of FAM86A gene: decreased
  expression level of MITF gene: significantly increased
  expression level of TYRP-1 gene: significantly increased
  expression level of TYRP-2 gene: significantly increased
  expression level of tyrosinase gene: significantly increased
[4]
  expression level of the protein FAM86A: decreases

## SEQ ID NO: 16: FAM86 shRNA (Mus musculus, NM_027446.2), pLKO.1 vector, target sequence SEQ ID NO: 26 (DNA CCGGGAGCATTCAGCCATCGTAATCCTCGAGGATTACGATGGCTGAATGCTCTTTTTG)
[5]
  Mean Knock down level: 0.56

— patent US12704520B2, “Melanogenesis detection method using FAM86A” (Research & Business Foundation Sungkyunkwan University, priority 2019, dated 2026)
